The text below walks through data of ChEMBL document CHEMBL1287764, “3-O-phosphate ester conjugates of 17-β-O-{1-[2-carboxy-(2-hydroxy-4-methoxy-3-carboxamido)anilido]ethyl}1,3,5(10)-estratriene as novel bone-targeting agents” (Bioorg Med Chem Lett, 2010).

This assay concerns Hydroxyapatite. Kind of assay: Binding affinity to hydroxyapatite at 10 nM by UV-spectroscopy relative to tetracycline.

In the case of `C[C@]12CC[C@@H]3c4ccc(O)cc4CC[C@H]3[C@@H]1CC[C@@H]2O`, the RBA was 0%. In turn, `COc1ccc(NC(=O)CCO[C@H]2CC[C@H]3[C@@H]4CCc5cc(OP(=O)(OC(C)C)OC(C)C)ccc5[C@H]4CC[C@]23C)c(O)c1C(N)=O` yielded an RBA of 200%. In the case of `COc1ccc(NC(=O)CCO[C@H]2CC[C@H]3[C@@H]4CCc5cc(OP(=O)(OCc6ccccc6)OCc6ccccc6)ccc5[C@H]4CC[C@]23C)c(O)c1C(N)=O` it was 190%.

`CCCCOP(=O)(OCCCC)Oc1ccc2c(c1)CC[C@@H]1[C@@H]2CC[C@]2(C)[C@@H](OCCC(=O)Nc3ccc(OC)c(C(N)=O)c3O)CC[C@@H]12` yielded an RBA of 100%. In the case of `CCCCC(CC)COP(=O)(OCC(CC)CCCC)Oc1ccc2c(c1)CC[C@@H]1[C@@H]2CC[C@]2(C)[C@@H](OCCC(=O)Nc3ccc(OC)c(C(N)=O)c3O)CC[C@@H]12` (stereo partly drawn) it was 180%; in that of `COc1ccc(NC(=O)CCO[C@H]2CC[C@H]3[C@@H]4CCc5cc(OP(=O)(OCC(C)C)OCC(C)C)ccc5[C@H]4CC[C@]23C)c(O)c1C(N)=O`, 180%; in that of `CCCCCCCCCCCCOP(=O)(OCCCCCCCCCCCC)Oc1ccc2c(c1)CC[C@@H]1[C@@H]2CC[C@]2(C)[C@@H](OCCC(=O)Nc3ccc(OC)c(C(N)=O)c3O)CC[C@@H]12`, 160%. Then `CN(C)[C@@H]1C(O)=C(C(N)=O)C(=O)[C@@]2(O)C(O)=C3C(=O)c4c(O)cccc4[C@@](C)(O)[C@H]3C[C@@H]12`, with 100%.
